The values below come from patent US7842683B2, “Neurotherapeutic compositions and method” (Revaax Pharmaceuticals, LLC, priority 1999, dated 2010).

Several values for one entry are separate records, joined by “and”; a condition that tells them apart may be missing. Equal entries are not always repeated. Where two headings read alike, the source gives them in different places.

The test system of data set [1] is gram negative beta-lactamase enzymes. The conditions noted are these: cited from earlier work.
For data set [2], the system named is male hamsters. Kind of data set: Novelty test, stress-induced release of cortisol. The format is in vivo. The settings on record: 10 μg/kg IP. As to the method:
The simple procedure of placing an adult male hamster into a novel environment for 5 min causes a significant, predictable increase in blood levels of cortisol (Weinberg and Wong 1986). This novelty test was used to assess the effects of CLAV on stress-induced release of cortisol. Two groups of male hamsters were treated IP with either CLAV (10 μg/kg, n=6), or saline vehicle (n=4). A third group (n=4) received no treatment or isolation stress and served as a control for basal levels of cortisol. Sixty min after treatment animals were taken from their home cage and placed into a novel cage for 5 min. Afterwards animals were sacrificed by decapitation and trunk blood collected for radioimmunoassay of cortisol. All animals were tested under reverse light:dark conditions four hrs into the dark cycle. Data were compared with a one-way ANOVA followed by Fisher PLSD post hoc tests.

The subject of the next data set is Male Wistar rats. Kind of data set: Elevated plus-maze (anxiolytic activity). The format is in vivo, rat.
The conditions of data set [3]: cited from earlier work.
For data set [4], the system named is Corticotropin Releasing Factor receptor. Kind of data set: NOVASCREEN CRF binding assay. The settings on record: 100 nM. As to the method: [table] Corticotropin releasing hormone (CRH or CRF as shown on the following page) is a critical neurohormone in the regulation of stress. Since Mox suppresses impulsivity, aggression, and anxiety while enhancing learning and memory it may be acting to reduce stress. For this reason, Mox was tested by NOVASCREEN in a CRF binding assay.

The conditions of data set [5]: cited from earlier work. The source holds these as a separate data set.
For data set [6], the system named is Amino Acid, Adrenergic, Serotonergic, and Dopaminergic Receptors and Their Transporters. Kind of data set: NOVASCREEN screen of thirty-six receptor and transporter binding assays. The conditions noted are these: 100 nM, duplicate samples. The source says: Moxalactam was screened in thirty-six different binding assays by NOVASCREEN, a contract research organization based in Hanover, Md. […] These assays were chosen because their respective receptor or transporter may play a role in the pathophysiology of mental illness. […] [table] [table] [table] [table] [table]

In data set [7] the test system is hamsters. Kind of data set: Olfactory discrimination: latency to find hidden sunflower seeds. The settings on record: 50 μg/kg. In kind it is in vivo, Syrian golden hamsters (Mesocricetus auratus). The procedure:
Sixteen animals were treated with vehicle or 50 μg/kg Mox and tested for olfactory discrimination by measuring their latency to find hidden sunflower seeds (FIG. 5). The injections were counterbalanced with each animal receiving each treatment. Prior to testing animals were fasted for 24 hrs. Ninety minutes after injection animals were briefly taken from their home cage while six sunflower seeds were buried under the bedding in one corner. Animals were placed back into their home cage and scored for the latency to find the seeds in a ten min observation period. […] In fact, not one of the sixteen animals consumed all of the seeds following saline as compared to all animals treated with Mox.
Six animals received an intracerebroventricular injection of vehicle or 1 mg/kg PPP and tested for olfactory discrimination by measuring their latency to find hidden sunflower seeds (FIG. 16). The injections were counterbalanced with each animal receiving each treatment. Prior to testing animals were fasted for 24 hrs. Sixty min. After injection animals were briefly taken from their home cage while six sunflower seeds were buried under the bedding in one corner. Animals were placed back into their home cage and scored for the latency to find the seeds in a five min. Observation period.

Data set [8] deals with hamsters. Kind of data set: Motor activity in an open field (hamsters). The conditions noted are these: 50 μg/kg, 90 min after injection. The format is in vivo, Syrian golden hamsters (Mesocricetus auratus). As to the method:
Six animals were tested for general motor activity in an “open field” following treatment with saline vehicle or 50 μg/kg Mox (FIG. 5). The study was counter balanced with each animal receiving each treatment. Ninety minutes after injection a single animal was placed into a large clean Plexiglas cage (48×32×40 cm) devoid of any bedding. This open field was delineated into equal quadrants by tape on the underside of the cage. Animals were scored for motor activity by counting the number of quadrants traversed in 1 min.

The subject of data set [9] is male hamsters. Kind of data set: Sexual activity toward a receptive female. In kind it is in vivo, golden hamsters. The conditions noted are these: 50 μg/kg, 90 min. As to the method: Six animals were tested over a five min observation period for sexual activity following treatment with saline vehicle or 50 μg/kg Mox (FIG. 6). The study was counter balanced with each animal receiving each treatment. Ninety min after injection, animals were scored for latency to mount and number of intromissions, i.e., bouts of copulation, toward a receptive female placed into their home cage. Female golden hamsters were ovariectomized under general anesthesia. Following recovery animals were treated with a single SC injection of […] estradiol benzoate for three consecutive days to induce sexual receptivity. On the day of testing the estrogen primed females were introduced into the home cage of the experimental males. […] Lordosis, is a stereotyped posture characterized by intense, sustained vertebral dorsiflexion.

Data set [10] relates to male hamsters. Kind of data set: Radial arm maze (spatial memory). In kind it is in vivo. The settings on record: 50 μg/kg. The source says: The radial arm maze is one of the most commonly used methods for testing spatial learning and memory in rodents. Developed by Olton and co-workers (1976), it provides the simultaneous choice of several alternative paths for the test subject. Animals must learn which locations provide food (place learning) using visuospatial cues. Experimental Trials: The experimental trials consist of three phases (described below). The arms of the maze are numbered clock-wise from one to seven with arm number one being the arm furthest to the right side of the maze. All trials are […]. When not being tested, all hamsters have unlimited access to water. […] Trials within all the phases are conducted on successive days. Phase One: Phase One consists of five 15 min trials. Prior to the beginning of each of the five trials in Phase One, four sunflower seeds are placed at the ends of arms one, two, and three. Arms four, five, six, and seven remain empty. Phase Two: Phase Two of the experimental trials are identical to Phase One except that the seeds are placed in arms two, four, and seven. […] Coding of Behaviors: An arm entry was scored if all four paws of a hamster crossed an arm threshold. A full arm entry into an arm is scored if a hamster's snout touches the top of the block at the end of an arm or if their snout passes the block. […] In addition, the number of seeds pouched by the hamsters was scored. […]

As a reminder, the bioavailability is the share of a dose that reaches the circulation, judged against a reference dose that is usually intravenous. With `O=C(O)[C@H]1/C(=C/CO)O[C@@H]2CC(=O)N21` [CLAV, Clavulanic acid], in data set [1], the “binding affinity for the beta-lactamases” value is “very high” and the “concentration range inhibiting gram negative beta-lactamase enzymes” value was 15 to 34 nM. Moreover, the “effect on the release of cortisol in response to mild stress” value in the data set with male hamsters [2] was “no ostensible effect”. Also, in the data set on male hamsters [2] (sixty min, 5 min novel cage), the “blood level of cortisol vs untreated, non-stressed control” value is “more than twice”. Further, the “effective dose, times less than CDP” value in the data set with Male Wistar rats (CLAV 100 ng/kg vs CDP 10 mg/kg) is 100,000 times. The open arm entries entry in the data set with Male Wistar rats (daily IP for seven days: CLAV 100 ng/kg, CDP 10 mg/kg) was “no significant difference”. Moreover, in data set [3] (in vivo), the CSF/plasma ratio result is “around 0.25”, the elimination half-life result is recorded as “under two”, the plasma half-life result is “over 2 hrs” and the volume of distribution result is recorded as “around 15 liters”. For the same molecule, the bioavailability in data set [3] (oral) is 64 to 75%.

For `CO[C@@]1(NC(=O)C(C(=O)O)c2ccc(O)cc2)C(=O)N2C(C(=O)O)=C(CSc3nnnn3C)CO[C@@H]21` (stereo partly drawn) [Mox, 7-β-[2-carboxy-2-(4-hydroxyphenyl)acetamido]-7α-methoxy-3-[[(1-methyl-1H-tetrazol-5-yl)thio]methyl]-1-oxa-1-dethia-3-cephem-4-carboxylic acid], the “effect in the CRF binding assay” value in [4] is on record as “no effect”. The “accumulation with multiple injections” value in data set [5] (8-12 hr intervals) is listed as “no accumulation”. In addition, the elimination half-life in data set [5] (IM injection) was 2.3 h. In addition, the “time of peak plasma concentrations” value in data set [5] (after IM injection) is recorded as “one”. The “CSF concentration as a percentage of serum concentration” value in data set [5] (human, in vivo) was 20% and 15-20%. In data set [6], the “effect in the thirty-six binding assays” value is on record as “no significant effect”. Further, the “time to consume all seeds” value in the data set with hamsters [7] is listed as “less than five”. For the same molecule, the “latency to find the seed” value in the data set with hamsters [7] (90 min, fasted 24 hrs) was “significantly (p<0.001) reduced”. The “open field activity (quadrants traversed in 1 min)” value in the data set with hamsters [8] is listed as “no significant difference”. Moreover, the intromission rate entry in the data set on male hamsters [9] is listed as “trend toward a decreased intromission rate”. Besides, the time to mount entry in the data set on male hamsters [9] (five min observation) was “significantly increased”. The “number of seeds discovered after reversing the orientation of the maze” value in the data set with male hamsters [10] is given as “significantly increased”.
